# Measured values reported in patent US20150315211A1, “SMALL MOLECULES FOR THE MODULATION OF MCL-1 AND METHODS OF MODULATING CELL DEATH, CELL DIVISION, CELL DIFFERENTIATION AND METHODS OF TREATING DISORDERS” (priority 2010, published 2015).
# System: MCL-1ΔNΔC
# Assay: High-throughput competitive FP binding screen, FITC-MCL-1 SAHB/MCL-1ΔNΔC interaction
# Details: selectivity for MCL-1ΔNΔC over BCL-XLΔC targeting (BCL-XL % Bound minus MCL-1 % Bound)
row,Compound,Spec Values
1,Oc1c(Cl)cc(Cl)cc1Sc1cc(Cl)cc(Cl)c1Cl,73.22
2,CCOc1ccc(S(=O)(=O)NC2C=C(Sc3nc[nH]n3)C(=O)c3ccccc32)cc1 (stereo not drawn),101.1
3,O=C1C(Sc2nc[nH]n2)=CC(NS(=O)(=O)c2ccc(F)cc2)c2ccccc21 (stereo not drawn),91.16
4,O=S(=O)(Nc1ccc(O)c2ccccc12)c1ccccc1,76.72
5,CCOC(=O)c1ccc(-c2ccc(/C=C3\S/C(=N\N=C4/C(=O)Nc5ccccc54)NC3=O)o2)cc1,53.34
6,O=C1N/C(=N/c2ccccc2)S/C1=C/C=C/c1ccco1,48.63
7,O=C1N/C(=N\c2ccc(F)cc2)S/C1=C/c1ccc(N2CCCCCC2)o1,47.38
8,CCOc1ccc(NC(=O)CC2C(=O)N(Cc3ccco3)C(=S)N2CCNC(C)=O)cc1 (stereo not drawn),82.72
9,CN(C)/C=C1\SC(=S)N(c2ccc(Br)cc2)C1=O,79.08
10,CC(C)C(C(=O)O)N1C(=O)/C(=C/C=C/c2ccco2)SC1=S (stereo not drawn),76.69
11,O=C(NN1C(=O)S/C(=C/C=C/c2ccco2)C1=O)c1ccccc1O,76.1
12,O=C1NC(=S)S/C1=C\c1ccc(-c2ccc(S(=O)(=O)N3CCOCC3)cc2)o1,69.33
13,O=C(O)C(Cc1ccccc1)N1C(=O)/C(=C\c2ccco2)SC1=S (stereo not drawn),68.92
14,O=C1/C(=C\C=C\c2ccco2)SC(=S)N1NS(=O)(=O)c1ccccc1,66.9
15,CCCN1C(=O)/C(=C/c2ccc(-c3cccc(C(F)(F)F)c3)o2)NC1=S,57.72
16,O=C1NC(=S)C(=C2CCCC2)S1,55.3

# Next, values leading:
row,Spec Values,Compound
1,52.77,COC(=O)c1ccc(-c2ccc(/C=C3/C(=O)N(C)C(=O)C(C#N)=C3C)o2)cc1
2,49.43,CC1=C(C#N)C(=O)N(CCc2ccccc2)C(=O)/C1=C\c1ccc(-c2cccc(Cl)c2)o1
3,109.9,O=c1oc2cc(Cl)c(O)c(Cl)c2s1
4,64.95,O=c1oc2c(-c3cccc(Cl)c3)cc(O)cc2s1
5,61.36,Cc1ccc(C)c(S(=O)(=O)Nc2cc(Cl)c3oc(=O)sc3c2)c1
6,47.88,Cc1cccc(C(=O)Oc2ccc3oc(=O)sc3c2)c1
7,93.98,Cc1ccc(C2=NC(=O)C(Cc3cc(O)c(O)c(Br)c3)S2)cc1 (stereo not drawn)
8,73.87,O=C1N=C(Nc2cccc(Cl)c2Cl)S/C1=C/c1ccco1
9,63,CCOC(=O)C1=C(Nc2cccc(Cl)c2)S/C(=C\c2ccco2)C1=O
10,58.06,CCOC(=O)C1=C(NC(=O)c2ccccc2)S/C(=C\c2ccc(C)o2)C1=O
11,48.14,COc1ccc(/C=c2\s/c(=C\C(=O)c3ccco3)[nH]c2=O)cc1O
12,62.76,CN(C)c1ccc(/C=C2\SC(=O)N(CCC(=O)Nc3ccccc3)C2=O)cc1
13,54.54,O=C(CCN1C(=O)/C(=C\C=C\c2ccco2)SC1=S)Nc1ccc(C(=O)O)c(O)c1

# Biological target: BCL-XLΔC (Homo sapiens, UniProt Q07817)
# Assay: High-throughput competitive FP binding screen, FITC-BAD BH3/BCL-XLΔC interaction
# Details: FITC-BAD BH3/BCL-XLΔC interaction pair, competitive FP screen
# Sequence of BCL-XLΔC (Q07817 1-212 limits assumed, stated change not applied): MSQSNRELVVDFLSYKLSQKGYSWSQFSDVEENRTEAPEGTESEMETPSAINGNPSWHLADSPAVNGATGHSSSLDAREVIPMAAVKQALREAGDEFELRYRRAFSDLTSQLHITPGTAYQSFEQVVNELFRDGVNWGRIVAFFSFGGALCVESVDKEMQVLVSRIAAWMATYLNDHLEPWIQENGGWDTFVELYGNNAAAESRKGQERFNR
row,Compound,BCL-XL % Bound [%]
1,Oc1c(Cl)cc(Cl)cc1Sc1cc(Cl)cc(Cl)c1Cl,100.4
2,CCOc1ccc(S(=O)(=O)NC2C=C(Sc3nc[nH]n3)C(=O)c3ccccc32)cc1 (stereo not drawn),103.4
3,O=C1C(Sc2nc[nH]n2)=CC(NS(=O)(=O)c2ccc(F)cc2)c2ccccc21 (stereo not drawn),96.12
4,O=S(=O)(Nc1ccc(O)c2ccccc12)c1ccccc1,96.39
5,CCOC(=O)c1ccc(-c2ccc(/C=C3\S/C(=N\N=C4/C(=O)Nc5ccccc54)NC3=O)o2)cc1,66.63
6,O=C1N/C(=N/c2ccccc2)S/C1=C/C=C/c1ccco1,97.59
7,O=C1N/C(=N\c2ccc(F)cc2)S/C1=C/c1ccc(N2CCCCCC2)o1,87.8
8,CCOc1ccc(NC(=O)CC2C(=O)N(Cc3ccco3)C(=S)N2CCNC(C)=O)cc1 (stereo not drawn),102.4
9,CN(C)/C=C1\SC(=S)N(c2ccc(Br)cc2)C1=O,112.3
10,CC(C)C(C(=O)O)N1C(=O)/C(=C/C=C/c2ccco2)SC1=S (stereo not drawn),102.8
11,O=C(NN1C(=O)S/C(=C/C=C/c2ccco2)C1=O)c1ccccc1O,95.8
12,O=C1NC(=S)S/C1=C\c1ccc(-c2ccc(S(=O)(=O)N3CCOCC3)cc2)o1,107.9
13,O=C(O)C(Cc1ccccc1)N1C(=O)/C(=C\c2ccco2)SC1=S (stereo not drawn),90.21
14,O=C1/C(=C\C=C\c2ccco2)SC(=S)N1NS(=O)(=O)c1ccccc1,89.9
15,CCCN1C(=O)/C(=C/c2ccc(-c3cccc(C(F)(F)F)c3)o2)NC1=S,85.65
16,O=C1NC(=S)C(=C2CCCC2)S1,93.34

# Next, values leading:
row,BCL-XL % Bound [%],Compound
1,91.59,COC(=O)c1ccc(-c2ccc(/C=C3/C(=O)N(C)C(=O)C(C#N)=C3C)o2)cc1
2,78.77,CC1=C(C#N)C(=O)N(CCc2ccccc2)C(=O)/C1=C\c1ccc(-c2cccc(Cl)c2)o1
3,104.7,O=c1oc2cc(Cl)c(O)c(Cl)c2s1
4,76.15,O=c1oc2c(-c3cccc(Cl)c3)cc(O)cc2s1
5,86.74,Cc1ccc(C)c(S(=O)(=O)Nc2cc(Cl)c3oc(=O)sc3c2)c1
6,92.24,Cc1cccc(C(=O)Oc2ccc3oc(=O)sc3c2)c1
7,96.59,Cc1ccc(C2=NC(=O)C(Cc3cc(O)c(O)c(Br)c3)S2)cc1 (stereo not drawn)
8,89.44,O=C1N=C(Nc2cccc(Cl)c2Cl)S/C1=C/c1ccco1
9,111.2,CCOC(=O)C1=C(Nc2cccc(Cl)c2)S/C(=C\c2ccco2)C1=O
10,101.2,CCOC(=O)C1=C(NC(=O)c2ccccc2)S/C(=C\c2ccc(C)o2)C1=O
11,263.7,COc1ccc(/C=c2\s/c(=C\C(=O)c3ccco3)[nH]c2=O)cc1O
12,92.22,CN(C)c1ccc(/C=C2\SC(=O)N(CCC(=O)Nc3ccccc3)C2=O)cc1
13,76.09,O=C(CCN1C(=O)/C(=C\C=C\c2ccco2)SC1=S)Nc1ccc(C(=O)O)c(O)c1

# Biological target: MCL-1ΔNΔC (Homo sapiens, UniProt Q07820)
# Assay: High-throughput competitive FP binding screen, FITC-MCL-1 SAHB/MCL-1ΔNΔC interaction
# Design: the C-terminal alpha-helix was deleted from each of these constructs; GST (N, cleaved yes); made in house
# Details: FITC-MCL-1 SAHB/MCL-1ΔNΔC interaction pair, competitive FP screen
# Sequence of MCL-1ΔNΔC (Homo sapiens, UniProt Q07820) (Q07820 172-320 limits assumed, stated change not applied): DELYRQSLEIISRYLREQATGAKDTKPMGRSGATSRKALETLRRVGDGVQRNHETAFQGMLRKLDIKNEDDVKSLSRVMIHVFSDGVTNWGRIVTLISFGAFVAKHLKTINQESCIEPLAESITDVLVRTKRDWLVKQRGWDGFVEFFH
row,Compound,MCL-1% Bound [%]
1,Oc1c(Cl)cc(Cl)cc1Sc1cc(Cl)cc(Cl)c1Cl,27.2
2,CCOc1ccc(S(=O)(=O)NC2C=C(Sc3nc[nH]n3)C(=O)c3ccccc32)cc1 (stereo not drawn),2.333
3,O=C1C(Sc2nc[nH]n2)=CC(NS(=O)(=O)c2ccc(F)cc2)c2ccccc21 (stereo not drawn),4.952
4,O=S(=O)(Nc1ccc(O)c2ccccc12)c1ccccc1,19.67
5,CCOC(=O)c1ccc(-c2ccc(/C=C3\S/C(=N\N=C4/C(=O)Nc5ccccc54)NC3=O)o2)cc1,13.28
6,O=C1N/C(=N/c2ccccc2)S/C1=C/C=C/c1ccco1,48.95
7,O=C1N/C(=N\c2ccc(F)cc2)S/C1=C/c1ccc(N2CCCCCC2)o1,40.42
8,CCOc1ccc(NC(=O)CC2C(=O)N(Cc3ccco3)C(=S)N2CCNC(C)=O)cc1 (stereo not drawn),19.69
9,CN(C)/C=C1\SC(=S)N(c2ccc(Br)cc2)C1=O,33.27
10,CC(C)C(C(=O)O)N1C(=O)/C(=C/C=C/c2ccco2)SC1=S (stereo not drawn),26.08
11,O=C(NN1C(=O)S/C(=C/C=C/c2ccco2)C1=O)c1ccccc1O,19.8
12,O=C1NC(=S)S/C1=C\c1ccc(-c2ccc(S(=O)(=O)N3CCOCC3)cc2)o1,38.57
13,O=C(O)C(Cc1ccccc1)N1C(=O)/C(=C\c2ccco2)SC1=S (stereo not drawn),21.29
14,O=C1/C(=C\C=C\c2ccco2)SC(=S)N1NS(=O)(=O)c1ccccc1,23.0
15,CCCN1C(=O)/C(=C/c2ccc(-c3cccc(C(F)(F)F)c3)o2)NC1=S,27.93
16,O=C1NC(=S)C(=C2CCCC2)S1,38.05

# Results, then the compound that gave them:
row,MCL-1% Bound [%],Compound
1,38.82,COC(=O)c1ccc(-c2ccc(/C=C3/C(=O)N(C)C(=O)C(C#N)=C3C)o2)cc1
2,29.33,CC1=C(C#N)C(=O)N(CCc2ccccc2)C(=O)/C1=C\c1ccc(-c2cccc(Cl)c2)o1
3,−5.219,O=c1oc2cc(Cl)c(O)c(Cl)c2s1
4,11.2,O=c1oc2c(-c3cccc(Cl)c3)cc(O)cc2s1
5,25.38,Cc1ccc(C)c(S(=O)(=O)Nc2cc(Cl)c3oc(=O)sc3c2)c1
6,44.36,Cc1cccc(C(=O)Oc2ccc3oc(=O)sc3c2)c1
7,2.607,Cc1ccc(C2=NC(=O)C(Cc3cc(O)c(O)c(Br)c3)S2)cc1 (stereo not drawn)
8,15.57,O=C1N=C(Nc2cccc(Cl)c2Cl)S/C1=C/c1ccco1
9,48.22,CCOC(=O)C1=C(Nc2cccc(Cl)c2)S/C(=C\c2ccco2)C1=O
10,43.16,CCOC(=O)C1=C(NC(=O)c2ccccc2)S/C(=C\c2ccc(C)o2)C1=O
11,215.6,COc1ccc(/C=c2\s/c(=C\C(=O)c3ccco3)[nH]c2=O)cc1O
12,29.45,CN(C)c1ccc(/C=C2\SC(=O)N(CCC(=O)Nc3ccccc3)C2=O)cc1
13,21.54,O=C(CCN1C(=O)/C(=C\C=C\c2ccco2)SC1=S)Nc1ccc(C(=O)O)c(O)c1
